In this assay the test system is MX-1 breast xenograft, nude mice, tumor weight change. As to the kind of experiment: NCI In Vivo Anticancer Drug Screen. Data for tumor model Human Mammary Carcinoma MX-1 Xenograft (subcutaneous) in NU/NU Swiss (nude) mice. Particulars: endpoint: optimum tumor weight change, schedule: Q04DX003 (ip), higher = larger tumour. How it is done:
The antitumor activity of compounds was measured in mice bearing transplantable tumors. Survival or tumor size were measured and the results are expressed as the measurement made in the treated group (T) divided by the measurement made in the vehicle treated control group (C). The tumor model used in this assay is Human Mammary Carcinoma MX-1 Xenograft (subcutaneous) in NU/NU Swiss (nude) mice

Setting [1] is: dose: 25.0 mg/kg/injection, vehicle: Klucel (hydroxypropylcellulose) (HPC).
The mark [2] stands for this setting: dose: 50.0 mg/kg/injection, vehicle: Klucel (hydroxypropylcellulose) (HPC).
Setting [3] is: dose: 100.0 mg/kg/injection, vehicle: saline.
The mark [4] stands for this setting: dose: 200.0 mg/kg/injection, vehicle: saline.
Setting [5] is: dose: 400.0 mg/kg/injection, vehicle: saline.
Where [6] appears, read: dose: 800.0 mg/kg/injection, vehicle: saline.
Where [7] appears, read: dose: 1.0 mg/kg/injection, vehicle: saline.
The mark [8] stands for this setting: dose: 25.0 mg/kg/injection, vehicle: saline.
Setting [9] is: dose: 4.0 mg/kg/injection, vehicle: saline.
The mark [10] stands for this setting: dose: 8.0 mg/kg/injection, vehicle: saline.
The mark [11] stands for this setting: dose: 32.0 mg/kg/injection, vehicle: saline.
The mark [12] stands for this setting: dose: 64.0 mg/kg/injection, vehicle: saline.
Setting [13] is: dose: 50.0 mg/kg/injection, vehicle: saline.

Structures are written as SMILES. Values joined by “and” are separate entries in the source; they are usually repeats but may differ in a detail not shown here. Equal values may be shown once.

The values below come from PubChem BioAssay AID294 (DTP/NCI, 2004).

As to `COc1cc(NS(C)(=O)=O)ccc1Nc1c2ccccc2nc2ccccc12`, the T/C (dose: 8.0 mg/kg/injection, vehicle: saline + alcohol) was 74 % of control.

With `CC1OC(OC2CC(O)(C(=O)CO)Cc3c(O)c4c(c(O)c32)C(=O)c2ccccc2C4=O)CC(N)C1O` (stereo not drawn), the T/C by setting is: (dose: 0.25 mg/kg/injection, vehicle: water) 104 % of control; (dose: 0.5 mg/kg/injection, vehicle: water) 104 % of control.

Turning to `COC(OC(CO)C(O)S(=O)(=O)O)C(O)S(=O)(=O)O` (stereo not drawn), the T/C was 83 % of control under setting [1]; 80 % of control under setting [2]; 62 % of control (dose: 100.0 mg/kg/injection, vehicle: Klucel (hydroxypropylcellulose) (HPC)); 63 % of control under setting [3]; 74 % of control under setting [4]; 68 % of control under setting [5]. The T/C under setting [6] is 47 % of control.

As for `CN(C)C=O`, the T/C (dose: 400.0 mg/kg/injection, vehicle: suspension in saline) is 44 % of control; the T/C (dose: 800.0 mg/kg/injection, vehicle: suspension in saline) is 53 % of control; the T/C (dose: 1600.0 mg/kg/injection, vehicle: suspension in saline) is 57 % of control.

In the case of `O=c1[nH]cnc2n[nH]nc12`, under “dose: 400.0 mg/kg/injection, vehicle: Klucel (hydroxypropylcellulose) (HPC)”, the T/C was 99 % of control.

Regarding `COc1cc([C@@H]2c3cc4c(c(O)c3C[C@H]3COC(=O)[C@@H]32)OCO4)cc(OC)c1O`, the T/C (dose: 3.13 mg/kg/injection, vehicle: saline) is 92 % of control and the T/C (dose: 6.25 mg/kg/injection, vehicle: saline) was 57 % of control.

Turning to `O=C[C@@H](CO)O[C@H](C=O)n1cnc2c(=O)[nH]cnc21`, the T/C under setting [5] was 29 % of control.

Turning to `NC(Cc1ccc(N(CCCl)CCCl)cc1)C(=O)O` (stereo not drawn), the T/C reads like this: (dose: 2.5 mg/kg/injection, vehicle: Klucel (hydroxypropylcellulose) (HPC)) 49 % of control; (dose: 5.0 mg/kg/injection, vehicle: Klucel (hydroxypropylcellulose) (HPC)) 15 % of control; (dose: 10.0 mg/kg/injection, vehicle: Klucel (hydroxypropylcellulose) (HPC)) -69 % of control and -81 % of control.

Take `C=CC(=O)NCNC(=O)C=C`: the T/C is, setting by setting: (dose: 100.0 mg/kg/injection, vehicle: suspension in saline) 101 % of control; (dose: 200.0 mg/kg/injection, vehicle: suspension in saline) 84 % of control.

Regarding `C[C@]12CC[C@@H]3c4ccc(OC(=O)Cc5ccc(N(CCCl)CCCl)cc5)cc4CC[C@H]3[C@@H]1CC[C@@H]2OC(=O)Cc1ccc(N(CCCl)CCCl)cc1`, the T/C (dose: 800.0 mg/kg/injection, vehicle: saline with Tween-80) is 50 % of control.

With `COc1cccc2c1C(=O)c1c(O)c3c(c(O)c1C2=O)C[C@@](O)(C(C)=O)C[C@@H]3OC1CC(N)C(O)C(C)O1` (stereo partly drawn), the T/C under setting [7] was 72 % of control.

For `COc1cccc2c1C(=O)c1c(O)c3c(c(O)c1C2=O)C[C@@](O)(/C(C)=N\O)C[C@@H]3OC1CC(N)C(O)C(C)O1` (stereo partly drawn), under setting [8], the T/C was 66 % of control.

As for `CC1CCC(NC(=O)N(CCCl)N=O)CC1` (stereo not drawn), the T/C under setting [1] was 50 % of control.

Turning to `OC(C1CO1)C(O)C1CO1` (stereo not drawn), under setting [7], the T/C is 70 % of control.

`CNC(=O)ON(C(C)=O)C(=O)NC`: the T/C is 81 % of control (dose: 12.5 mg/kg/injection, vehicle: saline) and 108 % of control under setting [8].

For the molecule `Cc1c(N)nc([C@H](CC(N)=O)NC[C@H](N)C(N)=O)nc1C(=O)N[C@H](C(=O)N[C@H](C)[C@@H](O)[C@H](C)C(=O)N[C@H](C(=O)NCCc1nc(-c2nc(C(=O)NCCC[S+](C)C)cs2)cs1)[C@@H](C)O)C(OC1OC(CO)C(O)C(O)C1OC1OC(CO)C(O)C(OC(N)=O)C1O)c1cnc[nH]1` (stereo partly drawn), the T/C was 52 % of control (dose: 3.75 mg/kg/injection, vehicle: saline); 55 % of control under setting [9]; 40 % of control and 41 % of control (dose: 7.5 mg/kg/injection, vehicle: saline); 55 % of control and 67 % of control under setting [10]; 31 % of control (2×) and 39 % of control (dose: 15.0 mg/kg/injection, vehicle: saline); 32 % of control and 39 % of control (dose: 16.0 mg/kg/injection, vehicle: saline). Also, the T/C reads like this: (dose: 30.0 mg/kg/injection, vehicle: saline) 17 % of control and 21 % of control and 25 % of control; under setting [11], 15 % of control and 22 % of control and 27 % of control; (dose: 60.0 mg/kg/injection, vehicle: saline) 13 % of control and 21 % of control; under setting [12], 16 % of control and 27 % of control.

With `N=C(N)SCc1c2ccccc2c(CSC(=N)N)c2ccccc12`, the T/C was 83 % of control (dose: 25.0 mg/kg/injection, vehicle: suspension in saline) and 123 % of control (dose: 50.0 mg/kg/injection, vehicle: suspension in saline).

`N[C@@H](Cc1ccc(N(CCCl)CCCl)cc1)C(=O)O`: the T/C runs as follows: (dose: 2.0 mg/kg/injection, vehicle: Klucel (hydroxypropylcellulose) (HPC)) 49 % of control; (dose: 4.0 mg/kg/injection, vehicle: Klucel (hydroxypropylcellulose) (HPC)) 37 % of control; (dose: 4.0 mg/kg/injection, vehicle: suspension in saline) 19 % of control and 36 % of control; (dose: 8.0 mg/kg/injection, vehicle: Klucel (hydroxypropylcellulose) (HPC)) -42 % of control.

As for `COc1cc([C@@H]2c3cc4c(c(O)c3C[C@H]3COC(=O)[C@@H]32)OCO4)cc(OC)c1OC`, the T/C runs as follows: (dose: 2.5 mg/kg/injection, vehicle: saline) 113 % of control; (dose: 5.0 mg/kg/injection, vehicle: saline) 64 % of control; (dose: 10.0 mg/kg/injection, vehicle: saline) 112 % of control.

Regarding `O=P1(NCCCl)OCCCN1CCCl` (stereo not drawn), the T/C was 57 % of control under setting [8] and 56 % of control under setting [13].

As for `O=C(O)CP(=O)(O)O`, the T/C reads like this: under setting [4], 87 % of control; under setting [5], 69 % of control; under setting [6], 48 % of control; (dose: 1600.0 mg/kg/injection, vehicle: saline) 50 % of control.

For the molecule `O=NN(CCCl)C(=O)NC1CCCCC1`, where the note is “dose: 12.5 mg/kg/injection, vehicle: Klucel (hydroxypropylcellulose) (HPC)”, the T/C was 75 % of control.

With `O=[N+]([O-])/C=C\c1ccc2c(c1)OCO2`, the T/C by setting is: under setting [2], 83 % of control; (dose: 200.0 mg/kg/injection, vehicle: Klucel (hydroxypropylcellulose) (HPC)) 81 % of control.

In the case of `Cc1c(N)nc([C@H](CC(N)=O)NC[C@H](N)C(N)=O)nc1C(=O)N[C@H](C(=O)N[C@H](C)[C@@H](O)CC(=O)N[C@H](C(=O)NC(O[C@@H]1O[C@@H](C)[C@@H](N)[C@@H](O)[C@H]1O)C(O)c1nc(-c2nc(C(=O)NCCCCN)cs2)cs1)[C@@H](C)O)[C@@H](O[C@@H]1O[C@@H](CO)[C@@H](O)[C@H](O)[C@@H]1O[C@H]1O[C@H](CO)[C@@H](O)[C@H](OC(N)=O)[C@@H]1O)c1c[nH]cn1` (stereo partly drawn), the T/C was 84 % of control (dose: 2.0 mg/kg/injection, vehicle: saline); 47 % of control under setting [9]; 42 % of control under setting [10]; 7 % of control and 21 % of control and 29 % of control under setting [11]; 32 % of control under setting [12].

Turning to `N=C(N)Sc1ccccn1`, the T/C is 106 % of control under setting [13], 77 % of control under setting [3] and 60 % of control under setting [4].

Regarding `NC(=O)c1ccc[n+](Cc2c(Cl)cccc2Cl)c1`, the T/C by setting is: (dose: 3.0 mg/kg/injection, vehicle: saline) 169 % of control; (dose: 24.0 mg/kg/injection, vehicle: saline) 111 % of control and 112 % of control; (dose: 96.0 mg/kg/injection, vehicle: saline) 100 % of control.
